{
  "source": "patent US20110190313A1",
  "about": "“Treatment of Pulmonary Arterial Hypertension” (priority 2008, published 2011)",
  "key": {"[1]": {"tested_on": "patients with severe pulmonary arterial hypertension"}, "[2]": {"tested_on": "patients with severe pulmonary arterial hypertension", "assay": "Example 2 trial: pulmonary hemodynamics", "format": "in vivo, human", "experimental": "(§1) Patients (≧18 years) in FC II-IV with idiopathic or familial PAH, or PAH associated with systemic sclerosis or congenital heart disease (WHO group I) and PVR>300 dynes·sec·cm^−5 were eligible. Patients were on stable PAH medication(s) for >3 months before enrolment. Females of child-bearing potential used double-barrier contraception.\n(§2) The primary efficacy outcome was the between-group difference in the 6MW distance (6MWD) at baseline and at 6 months. Complete hemodynamic parameters were assessed with standard techniques. FC was classified according to the WHO modification of the NYHA criteria for pulmonary hypertension.\n(§3) Analyses were conducted within the intention-to-treat (ITT) population, which consisted of all patients who received at least one dose of study medication. Dropouts were excluded from the analysis The primary efficacy analysis (6MWD) was performed using analysis of covariance (ANCOVA) with baseline value as a covariate. ANCOVAs were also used to assess between-group differences in pulmonary hemodynamics and blood gases. Missing data were not imputed so only subjects with assessment both at baseline and post-treatment were included in the ANCOVA analysis. FC was compared using Fisher's test."}, "[3]": {"tested_on": "patients with severe pulmonary arterial hypertension", "assay": "Example 2 trial: blood gases (oxygen saturation)", "format": "in vivo, human", "experimental": "as §3"}, "[4]": {"tested_on": "patients with severe pulmonary arterial hypertension", "assay": "Example 2 trial: 6-minute walk test (6MWD)", "format": "in vivo, human", "settings": "for 6MWD change vs. baseline, mean (SD): study end, patients with both baseline and end of study assessment", "excerpt": "Secondary objectives included changes in hemodynamic variables, and in FC.\nas §1, §2, §3"}, "[5]": {"settings": "end of study, with imatinib treatment"}},
  "note": "Read-outs that look alike come from different tables or passages of the source.",
  "data": [
    {"smiles": "Cc1ccc(NC(=O)c2ccc(CN3CCN(C)CC3)cc2)cc1Nc1nccc(-c2cccnc2)n1", "note": "[imatinib]", "values": [
      {"measurement": "Haemoglobin level (±SD)", "setting": "[1]; after the fall with imatinib", "value": "128 ± 16", "unit": "g/L"},
      {"measurement": "Haemoglobin level (±SD)", "setting": "[1]; before the fall (start value)", "value": "151 ± 14", "unit": "g/L"},
      {"measurement": "Deaths in group", "setting": "[1]; during 6 month study", "value": "three"},
      {"measurement": "AE headache, number of patients", "setting": "[1]; imatinib group", "value": 10},
      {"measurement": "AE headache, percent of patients", "setting": "[1]; imatinib group", "value": 35.7, "unit": "%"},
      {"measurement": "AE nausea, percent of patients", "setting": "[1]; imatinib group", "value": 50, "unit": "%"},
      {"measurement": "AE peripheral edema, number of patients", "setting": "[1]; imatinib group", "value": 7},
      {"measurement": "AE peripheral edema, percent of patients", "setting": "[1]; imatinib group", "value": 25.0, "unit": "%"},
      {"measurement": "Patients reporting AEs of mild intensity, number", "setting": "[1]; imatinib group", "value": 21},
      {"measurement": "Patients reporting AEs of mild intensity, percent", "setting": "[1]; imatinib group", "value": 75, "unit": "%"},
      {"measurement": "Patients reporting AEs of moderate intensity, number", "setting": "[1]; imatinib group", "value": 20},
      {"measurement": "Patients reporting AEs of moderate intensity, percent", "setting": "[1]; imatinib group", "value": 71, "unit": "%"},
      {"measurement": "Patients reporting AEs of severe intensity, number", "setting": "[1]; imatinib group", "value": 9},
      {"measurement": "Patients reporting AEs of severe intensity, percent", "setting": "[1]; imatinib group", "value": 32, "unit": "%"},
      {"measurement": "Patients with rupture of the pulmonary artery (fatal)", "setting": "[1]; imatinib group", "value": "One"},
      {"measurement": "Serious AEs (SAEs), number of recipients", "setting": "[1]; imatinib group", "value": 11},
      {"measurement": "Serious AEs (SAEs), percent of recipients", "setting": "[1]; imatinib group", "value": 39, "unit": "%"},
      {"measurement": "AE nausea, number of patients", "setting": "[1]; imatinib group N = 28", "value": 14},
      {"measurement": "Safety and tolerability in patients with PAH", "setting": "[1]; over 6 months, result in words", "value": "safe and well tolerated"},
      {"measurement": "Changes over time in other laboratory variables (white blood cell count, platelet count, albumin, liver enzymes, creatinine, electrolytes etc.)", "setting": "[1]; result in words", "value": "no relevant changes"},
      {"measurement": "PAPm, imatinib vs. placebo", "setting": "[2]; 6 months, result in words", "value": "no significant difference"},
      {"measurement": "Cardiac output (CO) mean treatment difference vs. placebo", "setting": "[2]; 6 months, 95% CI 0.10, 1.26, p=0.02", "value": 0.68, "unit": "L/min"},
      {"measurement": "PVR mean treatment difference vs. placebo", "setting": "[2]; 6 months, 95% CI −383.7, −77.8, p=0.004", "value": "−230.7", "unit": "dynes"},
      {"measurement": "Change between baseline and study end for PAPm, CO, PVR or 6MWD", "setting": "[2]; post-hoc subgroup, baseline PVR<1,000 dynes·sec·cm^−5", "value": "no major differences"},
      {"measurement": "Change between baseline and study end for PAPm, CO, PVR and 6MWD compared with placebo", "setting": "[2]; post-hoc subgroup, baseline PVR≧1,000 dynes·sec·cm^−5", "value": "substantial improvement"},
      {"measurement": "Systemic arterial oxygen saturation, mean treatment difference vs. placebo", "setting": "[3]; 95% CI 0.5, 4.3", "value": 2.4, "unit": "%"},
      {"measurement": "Mixed venous oxygen saturation, mean treatment difference vs. placebo", "setting": "[3]; 95% CI 2.1, 11.9", "value": 7.0, "unit": "%"},
      {"measurement": "Mixed venous oxygen saturation", "setting": "[3]; baseline", "value": "58±10", "unit": "%"},
      {"measurement": "Systemic arterial oxygen saturation", "setting": "[3]; baseline", "value": "88±9", "unit": "%"},
      {"measurement": "Mixed venous oxygen saturation", "setting": "[3]; [5]", "value": "65±7", "unit": "%"},
      {"measurement": "Systemic arterial oxygen saturation", "setting": "[3]; [5]", "value": "93±5", "unit": "%"},
      {"measurement": "6MWD treatment difference imatinib vs. placebo", "setting": "[4]; ANCOVA of ITT population, p=0.21", "value": 21.7, "unit": "m"},
      {"measurement": "6MWD change vs. baseline, mean (SD)", "setting": "[4]", "value": "+22±63 m"},
      {"measurement": "6MWD change vs. baseline, mean (SD)", "setting": "[4]; listed as Imatinib", "value": "22 (63) m"}
    ]}
  ]
}
